{"source": "patent US9730940B2", "about": "“Purine inhibitors of human phosphatidylinositol 3-kinase delta” (priority 2012, dated 2017)", "data": [{"biological_target": "PI3K-alpha (Homo sapiens (Human), UniProt P42336)", "sequence (P42336 whole entry, looked up, canonical isoform)": "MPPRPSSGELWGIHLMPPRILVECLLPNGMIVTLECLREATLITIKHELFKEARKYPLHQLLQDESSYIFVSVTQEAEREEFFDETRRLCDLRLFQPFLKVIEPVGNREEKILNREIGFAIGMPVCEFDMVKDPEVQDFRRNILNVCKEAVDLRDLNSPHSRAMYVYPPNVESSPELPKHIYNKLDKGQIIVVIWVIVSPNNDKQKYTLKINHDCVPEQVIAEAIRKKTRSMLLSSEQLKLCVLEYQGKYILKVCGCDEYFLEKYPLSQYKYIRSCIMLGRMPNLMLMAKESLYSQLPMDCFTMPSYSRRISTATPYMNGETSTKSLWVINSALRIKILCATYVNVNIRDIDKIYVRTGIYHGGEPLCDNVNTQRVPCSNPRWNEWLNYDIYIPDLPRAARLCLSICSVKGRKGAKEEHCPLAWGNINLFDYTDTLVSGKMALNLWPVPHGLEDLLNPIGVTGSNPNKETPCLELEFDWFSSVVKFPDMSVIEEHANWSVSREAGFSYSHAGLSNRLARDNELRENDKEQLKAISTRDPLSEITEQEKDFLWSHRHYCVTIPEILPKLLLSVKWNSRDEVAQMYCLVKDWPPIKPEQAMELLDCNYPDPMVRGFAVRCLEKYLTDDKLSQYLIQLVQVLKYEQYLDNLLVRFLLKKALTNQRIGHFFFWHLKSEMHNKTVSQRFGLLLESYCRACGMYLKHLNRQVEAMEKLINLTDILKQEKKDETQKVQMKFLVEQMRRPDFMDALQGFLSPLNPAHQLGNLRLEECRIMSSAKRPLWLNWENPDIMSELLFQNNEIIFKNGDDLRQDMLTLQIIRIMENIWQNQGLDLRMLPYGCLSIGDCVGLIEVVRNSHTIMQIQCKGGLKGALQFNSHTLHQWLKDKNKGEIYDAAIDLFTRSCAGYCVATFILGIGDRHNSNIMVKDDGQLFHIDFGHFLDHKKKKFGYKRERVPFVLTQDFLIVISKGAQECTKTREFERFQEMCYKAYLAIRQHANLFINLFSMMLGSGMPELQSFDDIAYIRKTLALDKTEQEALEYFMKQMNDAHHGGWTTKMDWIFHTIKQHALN", "sequence (P27986 whole entry partner, looked up, canonical isoform)": "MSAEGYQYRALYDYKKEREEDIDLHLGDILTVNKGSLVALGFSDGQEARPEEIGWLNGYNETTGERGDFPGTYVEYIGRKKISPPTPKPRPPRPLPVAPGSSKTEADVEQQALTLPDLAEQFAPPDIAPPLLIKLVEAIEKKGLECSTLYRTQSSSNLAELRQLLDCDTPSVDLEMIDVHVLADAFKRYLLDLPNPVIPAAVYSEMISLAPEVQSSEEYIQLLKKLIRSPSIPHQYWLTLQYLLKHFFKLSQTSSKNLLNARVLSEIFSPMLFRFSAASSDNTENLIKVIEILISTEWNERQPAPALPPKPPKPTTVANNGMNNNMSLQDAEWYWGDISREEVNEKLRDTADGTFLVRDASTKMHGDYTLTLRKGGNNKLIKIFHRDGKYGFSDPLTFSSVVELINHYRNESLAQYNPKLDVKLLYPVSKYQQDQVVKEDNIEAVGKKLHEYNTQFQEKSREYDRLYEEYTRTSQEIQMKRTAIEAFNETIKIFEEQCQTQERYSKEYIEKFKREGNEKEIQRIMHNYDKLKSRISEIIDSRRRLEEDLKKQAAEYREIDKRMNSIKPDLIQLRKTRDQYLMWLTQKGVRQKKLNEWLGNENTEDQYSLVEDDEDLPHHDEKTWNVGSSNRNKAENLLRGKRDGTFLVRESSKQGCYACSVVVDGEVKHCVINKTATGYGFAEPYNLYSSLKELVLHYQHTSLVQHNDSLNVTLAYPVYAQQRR", "experiment": "HTRF PI3K biochemical assay, alpha isoform", "conditions": "ratio PI3K-alpha IC50 value/PI3K-delta IC50 value", "values": [{"smiles": "CCOC(=O)N1CC[C@H](Sc2ncnc3c2nc(-c2cnn(CC)c2C)n3C)C1", "note": "[Compound 10-8, (S)-ethyl 3-((8-(1-ethyl-5-methyl-1H-pyrazol-4-yl)-9-methyl-9H-purin-6-yl)thio)pyrrolidine-1-carboxylate]", "Relative Selectivity versus PI3Kalpha": ">10"}, {"smiles": "CCn1ncc(-c2nc3c(S[C@H]4CCN(C(=O)OCC(C)C)C4)ncnc3n2C)c1C", "note": "[Compound 10-9, (S)-isobutyl 3-((8-(1-ethyl-5-methyl-1H-pyrazol-4-yl)-9-methyl-9H-purin-6-yl)thio)pyrrolidine-1-carboxylate]", "Relative Selectivity versus PI3Kalpha": ">10"}, {"smiles": "CCn1ncc(-c2nc3c(S[C@H]4CCN(C(=O)c5ccn(C)n5)C4)ncnc3n2C)c1C", "note": "[Compound 10-10, (S)-(3-((8-(1-ethyl-5-methyl-1H-pyrazol-4-yl)-9-methyl-9H-purin-6-yl)thio)pyrrolidin-1-yl)(1-methyl-1H-pyrazol-3-yl)methanone]", "Relative Selectivity versus PI3Kalpha": ">10"}, {"smiles": "CCn1ncc(-c2nc3c(S[C@H]4CCN(C(=O)c5coc(C)n5)C4)ncnc3n2C)c1C", "note": "[Compound 10-11, (S)-(3-((8-(1-ethyl-5-methyl-1H-pyrazol-4-yl)-9-methyl-9H-purin-6-yl)thio)pyrrolidin-1-yl)(2-methyloxazol-4-yl)methanone]", "Relative Selectivity versus PI3Kalpha": ">10"}, {"smiles": "CCn1ncc(-c2nc3c(S[C@H]4CCN(c5ccncn5)C4)ncnc3n2C)c1C", "note": "[Compound 10-12, (S)-8-(1-ethyl-5-methyl-1H-pyrazol-4-yl)-9-methyl-6-((1-(pyrimidin-4-yl)pyrrolidin-3-yl)thio)-9H-purine]", "Relative Selectivity versus PI3Kalpha": ">10"}, {"smiles": "CCn1ncc(-c2nc3c(S[C@H]4CCN(c5ncnc6sccc56)C4)ncnc3n2C)c1C", "note": "[Compound 10-13, (S)-4-(3-((8-(1-ethyl-5-methyl-1H-pyrazol-4-yl)-9-methyl-9H-purin-6-yl)thio)pyrrolidin-1-yl)thieno[2,3-d]pyrimidine]", "Relative Selectivity versus PI3Kalpha": ">10"}, {"smiles": "CCn1ncc(-c2nc3c(CC4CCN(C(=O)OC(C)(C)C)C4)ncnc3n2C)c1C", "note": "(stereo not drawn) [Compound 11-1, tert-butyl 3-((8-(1-ethyl-5-methyl-1H-pyrazol-4-yl)-9-methyl-9H-purin-6-yl)methyl)pyrrolidine-1-carboxylate]", "Relative Selectivity versus PI3Kalpha": ">10"}, {"smiles": "CCn1ncc(-c2nc3c(CC4CCN(C(=O)C5CCOCC5)C4)ncnc3n2C)c1C", "note": "(stereo not drawn) [Compound 11-2, (3-((8-(1-ethyl-5-methyl-1H-pyrazol-4-yl)-9-methyl-9H-purin-6-yl)methyl)pyrrolidin-1-yl)(tetrahydro-2H-pyran-4-yl)methanone]", "Relative Selectivity versus PI3Kalpha": ">10"}, {"smiles": "CCC(=O)N1CCC(Cc2ncnc3c2nc(-c2cnn(CC)c2C)n3C)C1", "note": "(stereo not drawn) [Compound 11-3, 1-(3-((8-(1-ethyl-5-methyl-1H-pyrazol-4-yl)-9-methyl-9H-purin-6-yl)methyl)pyrrolidin-1-yl)propan-1-one]", "Relative Selectivity versus PI3Kalpha": ">10"}, {"smiles": "CCC(=O)N1CC[C@H](Oc2ncnc3c2nc(Oc2cccc(C)c2C)n3C)C1", "note": "[Compound 12-1, 8-(2,3-dimethylphenoxy)-9-methyl-6-{[(3S)-1-propanoylpyrrolidin-3-yl]oxy}-9H-purine]", "Relative Selectivity versus PI3Kalpha": 4}, {"smiles": "CCC(=O)N1CC[C@H](Oc2ncnc3c2nc(Oc2cc(F)cc(OC)c2)n3C)C1", "note": "[Compound 12-2, 8-(3-fluoro-5-methoxyphenoxy)-9-methyl-6-{[(3S)-1-propanoylpyrrolidin-3-yl]oxy}-9H-purine]", "Relative Selectivity versus PI3Kalpha": ">10"}, {"smiles": "CCC(=O)N1CC[C@H](Oc2ncnc3c2nc(Oc2cnc(C)nc2)n3C)C1", "note": "[Compound 12-3, 9-methyl-8-[(2-methylpyrimidin-5-yl)oxy]-6-{[(3S)-1-propanoylpyrrolidin-3-yl]oxy}-9H-purine]", "Relative Selectivity versus PI3Kalpha": ">10"}, {"smiles": "CCC(=O)N1CC[C@H](Oc2ncnc3c2nc(Oc2ccc(OC)c(F)c2)n3C)C1", "note": "[Compound 12-4, 8-(3-fluoro-4-methoxyphenoxy)-9-methyl-6-{[(3S)-1-propanoylpyrrolidin-3-yl]oxy}-9H-purine]", "Relative Selectivity versus PI3Kalpha": ">10"}, {"smiles": "CCn1c(N(C)CC(C)C)nc2c(O[C@H]3CCN(C(=O)OC(C)(C)C)C3)ncnc21", "note": "[Compound 13-1, tert-butyl (3S)-3-({9-ethyl-8-[methyl(2-methylpropyl)amino]-9H-purin-6-yl}oxy)pyrrolidine-1-carboxylate]", "Relative Selectivity versus PI3Kalpha": ">10"}, {"smiles": "CCn1c(N(C)CCO)nc2c(O[C@H]3CCN(C(=O)OC(C)(C)C)C3)ncnc21", "note": "[Compound 13-2, tert-butyl (3S)-3-({9-ethyl-8-[(2-hydroxyethyl)(methyl)amino]-9H-purin-6-yl}oxy)pyrrolidine-1-carboxylate]", "Relative Selectivity versus PI3Kalpha": ">10"}, {"smiles": "CCn1c(N2CCC(S(C)(=O)=O)C2)nc2c(O[C@H]3CCN(C(=O)OC(C)(C)C)C3)ncnc21", "note": "(stereo partly drawn) [Compound 13-3, tert-butyl (3S)-3-({9-ethyl-8-[3-(methylsulfonyl)pyrrolidin-1-yl]-9H-purin-6-yl}oxy)pyrrolidine-1-carboxylate]", "Relative Selectivity versus PI3Kalpha": ">10"}, {"smiles": "CCn1c(N2CCC(C)CC2)nc2c(O[C@H]3CCN(C(=O)OC(C)(C)C)C3)ncnc21", "note": "[Compound 13-4, tert-butyl (3S)-3-{[9-ethyl-8-(4-methylpiperidin-1-yl)-9H-purin-6-yl]oxy}pyrrolidine-1-carboxylate]", "Relative Selectivity versus PI3Kalpha": ">10"}, {"smiles": "CCn1c(N2CCC(c3ccccc3)CC2)nc2c(O[C@H]3CCN(C(=O)OC(C)(C)C)C3)ncnc21", "note": "[Compound 13-5, tert-butyl (3S)-3-{[9-ethyl-8-(4-phenylpiperidin-1-yl)-9H-purin-6-yl]oxy}pyrrolidine-1-carboxylate]", "Relative Selectivity versus PI3Kalpha": ">10"}, {"smiles": "CCn1c(N(C)CCOC)nc2c(O[C@H]3CCN(C(=O)OC(C)(C)C)C3)ncnc21", "note": "[Compound 13-6, tert-butyl (3S)-3-({9-ethyl-8-[(2-methoxyethyl)(methyl)amino]-9H-purin-6-yl}oxy)pyrrolidine-1-carboxylate]", "Relative Selectivity versus PI3Kalpha": ">10"}, {"smiles": "CCn1c(N(C)C(C)C)nc2c(O[C@H]3CCN(C(=O)OC(C)(C)C)C3)ncnc21", "note": "[Compound 13-7, tert-butyl (3S)-3-({9-ethyl-8-[methyl(1-methylethyl)amino]-9H-purin-6-yl}oxy)pyrrolidine-1-carboxylate]", "Relative Selectivity versus PI3Kalpha": ">10"}, {"smiles": "CCn1c(N2CCC(C)C2)nc2c(O[C@H]3CCN(C(=O)OC(C)(C)C)C3)ncnc21", "note": "(stereo partly drawn) [Compound 13-8, tert-butyl (3S)-3-{[9-ethyl-8-(3-methylpyrrolidin-1-yl)-9H-purin-6-yl]oxy}pyrrolidine-1-carboxylate]", "Relative Selectivity versus PI3Kalpha": ">10"}, {"smiles": "CCC(=O)N1CC[C@H](Oc2ncnc3c2nc(C2=CCOCC2)n3CC)C1", "note": "[Compound 14-1, 8-(3,6-dihydro-2H-pyran-4-yl)-9-ethyl-6-{[(3S)-1-propanoylpyrrolidin-3-yl]oxy}-9H-purine]", "Relative Selectivity versus PI3Kalpha": ">10"}, {"smiles": "CCC(=O)N1CC[C@H](Oc2ncnc3c2nc(C2CC2)n3C)C1", "note": "[Compound 14-2, 8-cyclopropyl-9-methyl-6-{[(3S)-1-propanoylpyrrolidin-3-yl]oxy}-9H-purine]", "Relative Selectivity versus PI3Kalpha": ">10"}, {"smiles": "CCC(=O)N1CC[C@H](Oc2ncnc3c2nc(CC(C)C)n3CC)C1", "note": "[Compound 14-3, 9-ethyl-8-(2-methylpropyl)-6-{[(3S)-1-propanoylpyrrolidin-3-yl]oxy}-9H-purine]", "Relative Selectivity versus PI3Kalpha": ">10"}, {"smiles": "CCC(=O)N1CC[C@H](Oc2ncnc3c2nc(CC(C)C)n3C)C1", "note": "[Compound 14-4, 9-methyl-8-(2-methylpropyl)-6-{[(3S)-1-propanoylpyrrolidin-3-yl]oxy}-9H-purine]", "Relative Selectivity versus PI3Kalpha": ">10"}, {"smiles": "CCC(=O)N1CC[C@H](Oc2ncnc3c2nc(C(F)F)n3CC)C1", "note": "[Compound 14-5, 8-(difluoromethyl)-9-ethyl-6-{[(3S)-1-propanoylpyrrolidin-3-yl]oxy}-9H-purine]", "Relative Selectivity versus PI3Kalpha": ">10"}, {"smiles": "CCC(=O)N1CC[C@H](Oc2ncnc3c2nc(C(F)(F)F)n3CC)C1", "note": "[Compound 14-6, 9-ethyl-6-{[(3S)-1-propanoylpyrrolidin-3-yl]oxy}-8-(trifluoromethyl)-9H-purine]", "Relative Selectivity versus PI3Kalpha": ">10"}, {"smiles": "CCC(=O)N1CC[C@H](Oc2ncnc3c2nc(C(F)(F)F)n3C)C1", "note": "[Compound 14-7, 9-methyl-6-{[(3S)-1-propanoylpyrrolidin-3-yl]oxy}-8-(trifluoromethyl)-9H-purine]", "Relative Selectivity versus PI3Kalpha": ">10"}, {"smiles": "CCn1c(C(=O)NCC(F)(F)F)nc2c(O[C@H]3CCN(C(=O)OC(C)(C)C)C3)ncnc21", "note": "[Compound 15-1, tert-butyl (3S)-3-({9-ethyl-8-[(2,2,2-trifluoroethyl)carbamoyl]-9H-purin-6-yl}oxy)pyrrolidine-1-carboxylate]", "Relative Selectivity versus PI3Kalpha": ">10"}, {"smiles": "CCn1c(C(=O)NCC(F)(F)F)nc2c(O[C@H]3CCN(C(=O)N4CC(OC)C4)C3)ncnc21", "note": "[Compound 15-2, (S)-9-ethyl-6-((1-(3-methoxyazetidine-1-carbonyl)pyrrolidin-3-yl)oxy)-N-(2,2,2-trifluoroethyl)-9H-purine-8-carboxamide]", "Relative Selectivity versus PI3Kalpha": ">10"}, {"smiles": "CCn1c(C(=O)NCC2CC2)nc2c(O[C@H]3CCN(C(=O)OC(C)(C)C)C3)ncnc21", "note": "[Compound 15-3, tert-butyl (3S)-3-({8-[(cyclopropylmethyl)carbamoyl]-9-ethyl-9H-purin-6-yl}oxy)pyrrolidine-1-carboxylate]", "Relative Selectivity versus PI3Kalpha": ">10"}, {"smiles": "CCn1c(C(=O)NC2CCCCC2)nc2c(O[C@H]3CCN(C(=O)OC(C)(C)C)C3)ncnc21", "note": "[Compound 15-4, tert-butyl (3S)-3-{[8-(cyclohexylcarbamoyl)-9-ethyl-9H-purin-6-yl]oxy}pyrrolidine-1-carboxylate]", "Relative Selectivity versus PI3Kalpha": ">10"}, {"smiles": "CCNC(=O)c1nc2c(O[C@H]3CCN(C(=O)OC(C)(C)C)C3)ncnc2n1CC", "note": "[Compound 15-5, tert-butyl (3S)-3-{[9-ethyl-8-(ethylcarbamoyl)-9H-purin-6-yl]oxy}pyrrolidine-1-carboxylate]", "Relative Selectivity versus PI3Kalpha": ">10"}]}]}
